Converted amounts (≈) assume the structure as drawn. Read-outs that look alike come from different tables or passages of the source.
How the values were obtained:
Format in all cases: cell-based
[1] = system: Aspergillus niger; experiment: General antimicrobial activity, 5-fold serial dilution test in agar (MIC); conditions: 168 h, 28° C., seven days, growth only at lower concentration of range, read-out: minimum inhibitory concentration (MIC), F1
Method: (§1) General antibacterial and antifungal activity was evaluated by a 5-fold serial dilution test in agar. In this test, compounds were prepared as 6% solutions in dimethylformamide or ethanol. The 6% solution was then 5-fold serially diluted in test tubes to give the desired concentrations when mixed with agar and poured into sterile Petri dishes. Tryptone glucose extract agar was used for the bacterial testing; mildew glucose agar for the fungal testing. The bacterial plates were spot inoculated with 24-hour nutrient broth cultures and incubated at 37° C. for 48 hours. The fungal plates were spot inoculated with spore suspensions and incubated at 28° C. for seven days. At the end of the incubation periods, all plates were examined for growth. The minimum inhibitory concentration (MIC) for each organism is expressed in Table I. In the ranges presented, growth is observed only at the lower concentration.
(§2) The activity is presented in Tabular Form (Table I) using the following key.

[2] = system: Aspergillus oryzae; experiment: as above; conditions: 168 h, 28° C., seven days, growth only at lower concentration of range, read-out: minimum inhibitory concentration (MIC), F2
Method: as §1, §2

[3] = system: Aureobasidium pullulans; experiment: as above; conditions: 168 h, 28° C., seven days, growth only at lower concentration of range, read-out: minimum inhibitory concentration (MIC), F4
Method: as §1, §2

[4] = system: Bacillus subtilis; experiment: as above; conditions: 37° C., 48 hours, growth only at lower concentration of range, read-out: minimum inhibitory concentration (MIC), B5
Method: as §1, §2

[5] = system: Escherichia coli; experiment: as above; conditions: 37° C., 48 hours, growth only at lower concentration of range, read-out: minimum inhibitory concentration (MIC), B2
Method: as §1, §2

[6] = system: Penicillium piscarium; experiment: as above; conditions: 168 h, 28° C., seven days, growth only at lower concentration of range, read-out: minimum inhibitory concentration (MIC), F3
Method: as §1, §2

[7] = system: Proteus vulgaris; experiment: as above; conditions: 37° C., 48 hours, growth only at lower concentration of range, read-out: minimum inhibitory concentration (MIC), B4
Method: as §1, §2

[8] = system: Pseudomonas aeruginosa; experiment: as above; conditions: 37° C., 48 hours, growth only at lower concentration of range, read-out: minimum inhibitory concentration (MIC), B3
Method: as §1, §2

[9] = system: Staphylococcus aureus; experiment: as above; conditions: 37° C., 48 hours, growth only at lower concentration of range, read-out: minimum inhibitory concentration (MIC), B1
Method: as §1, §2

[10] = system: Aspergillus niger; experiment: Utility as a cosmetic preservative (cosmetic lotion); conditions: weekly reinoculation
Method: (§3) The 2-Chloro-3-oxobutyramide derivatives are effective cosmetic preservatives. Two-fold serial dilutions of 6% solutions of the 2-haloacetoacetic acid derivatives in dimethylformamide were added to a cosmetic lotion of the following formulation: |Stearic acid 1.4 g |Arlacel 60 (sorbitan |monostearate) 0.7 g |Tween 20 Polyoxethylene |(20) sorbitan |monostearate 1.6 g |Distilled water 94.0 g The lotions were inoculated with both Pseudomonas aeruginosa and Aspergillus niger and incubated at 28° C. At weekly intervals, the lotions were examined for microorganisms by conventional streak-plate methods or by macroscopic observation. The lotions were then reinoculated with the test organisms and reincubated.

[11] = system: Pseudomonas aeruginosa; experiment: as above; conditions: weekly reinoculation
Method: as §3

[12] = system: Pseudomonas aeruginosa; experiment: Utility in water and oil emulsions (3.3% cutting oil emulsions); conditions: 28° C., weekly reinoculation, read-out: Minimum Inhibitory Concentration Range
Method: The utility of the 2-chloro-3-oxobutyramide derivatives in water and oil emulsions is illustrated below using a commercially available cutting oil. In running these tests, two-fold serial dilutions of 6% solutions of the compound in dimethylformamide was added to 3.3% cutting oil emulsions. The emulsions were prepared by diluting with water a commercially available cutting oil concentrate. The emulsions were inoculated with a culture of Pseudomonas aeruginosa and incubated at 28° C. on a rotary shaker. At weekly intervals, the emulsions were examined for bacteria by conventional streak-plate methods. The emulsions were then reinoculated with Pseudomonas aeruginosa and reincubated. […] indicate the activity range for that compound.

[13] = system: A. niger; experiment: Effectiveness as slimicide for pulp and paper mill water systems; conditions: range: growth at lower, none at higher, 62.5 = lowest concentration tested, no growth at it; for MIC: Aspergillus niger, week 1, 28° C., read-out: Effectiveness as slimicide (inhibitory concentration range)
Method: (§4) Various quantities of a 6% solution of this compound in dimethylformamide were incorporated into 24 ml of a test substrate composed as follows: 84.4 g Whatman No. 2 powdered cellulose 2.6 g Sodium nitrate 1.0 g Calcium sulfate 6.5 g Maltose 1.0 g Nutrient Broth, Difco 10.0 ml Mersize Rm […] (Monsanto) 2.5 ml 2% Alum 900 ml Distilled water The samples were inoculated with four different organisms and incubated at 28° C. At weekly intervals the samples were examined for the presence of microbial growth and reinoculated during a total incubation period of four weeks.

[14] = system: E. aerogenes; experiment: as above; conditions: Klebsiella aerogenes, range: growth at lower, read-out: Effectiveness as slimicide (inhibitory concentration range)
Method: as §4

[15] = system: P. aeruginosa; experiment: as above; conditions: 62.5 = lowest concentration tested, no growth at it; for MIC: Pseudomonas aeruginosa, week 1, 28° C., read-out: Effectiveness as slimicide (inhibitory concentration range)
Method: as §4

[16] = system: P. piscarium; experiment: as above; conditions: read-out: Effectiveness as slimicide (inhibitory concentration range)
Method: as §4

[17] = Week 1, 3.3% cutting oil emulsion
[18] = Week 2, 3.3% cutting oil emulsion
[19] = Week 3, 3.3% cutting oil emulsion
[20] = Week 4, 3.3% cutting oil emulsion
[21] = week 1, 28° C., none at higher, 62.5 = lowest concentration tested, no growth at it
[22] = week 2, 28° C., none at higher, 62.5 = lowest concentration tested, no growth at it
[23] = week 3, 28° C., none at higher concentration
[24] = week 4, 28° C., none at higher concentration
[25] = week 1, 28° C., 62.5 = lowest concentration tested, no growth at it
[26] = week 2, 28° C., range: growth at lower, none at higher concentration
[27] = week 3, 28° C., range: growth at lower, none at higher concentration
[28] = week 4, 28° C., range: growth at lower, none at higher concentration

Row | SMILES | MIC [1] | MIC [2] | MIC [3] | MIC [4] | MIC [5] | MIC [6] | MIC [7] | MIC [8] | MIC [9] | minimum inhibitory concentration effective in preventing microbial growth ([10]; Week 1, 28° C.) | minimum inhibitory concentration effective in preventing microbial growth ([10]; Week 2, 28° C.) | minimum inhibitory concentration effective in preventing microbial growth ([10]; Week 3, 28° C.) | minimum inhibitory concentration effective in preventing microbial growth ([10]; Week 4, 28° C.) | minimum inhibitory concentration effective in preventing microbial growth ([11]; Week 1, 28° C.) | minimum inhibitory concentration effective in preventing microbial growth ([11]; Week 2, 28° C.) | minimum inhibitory concentration effective in preventing microbial growth ([11]; Week 3, 28° C.) | minimum inhibitory concentration effective in preventing microbial growth ([11]; Week 4, 28° C.) | MIC [12, 17] | MIC [12, 18] | MIC [12, 19] | also measured
1 | CC(=O)C(Cl)C(N)=O (centres unmarked) [2-Chloro-3-oxobutyramide] | 15.3 to 76.8 µg/mL (≈ 113 to 567 µM) | 15.3 to 76.8 µg/mL (≈ 113 to 567 µM) | 15.3 to 76.8 µg/mL (≈ 113 to 567 µM) | 15.3 to 76.8 µg/mL (≈ 113 to 567 µM) | 15.3 to 76.8 µg/mL (≈ 113 to 567 µM) | 15.3 to 76.8 µg/mL (≈ 113 to 567 µM) | 15.3 to 76.8 µg/mL (≈ 113 to 567 µM) | 15.3 to 76.8 µg/mL (≈ 113 to 567 µM) | 15.3 to 76.8 µg/mL (≈ 113 to 567 µM) | 5 (63-125 mcg/gm) | 5 (63-125 mcg/gm) | 4 (125-250 mcg/gm) | 2 (500-1000 mcg/gm) | 5 (63-125 mcg/gm) | 5 (63-125 mcg/gm) | 4 (125-250 mcg/gm) | 4 (125-250 mcg/gm) | 8 to 16 µg/mL (≈ 59 to 118 µM) | 63 to 125 µg/mL (≈ 465 to 922 µM) | 63 to 125 µg/mL (≈ 465 to 922 µM) | MIC [12, 20]: 63 to 125 µg/mL (≈ 465 to 922 µM); MIC [13]: 62.5 µg/mL (≈ 461 µM); Effectiveness as slimicide (inhibitory concentration range) ([13]; week 2, 28° C.): 62.5 µg/mL; Effectiveness as slimicide (inhibitory concentration range) ([13]; week 3, 28° C.): 62.5 µg/mL; Effectiveness as slimicide (inhibitory concentration range) ([13]; week 4, 28° C.): 62.5 µg/mL; MIC [14, 21]: 62.5 µg/mL (≈ 461 µM); MIC [14, 22]: 62.5 µg/mL (≈ 461 µM); MIC [14, 23]: 62.5 to 125 µg/mL (≈ 461 to 922 µM); MIC [14, 24]: 62.5 to 125 µg/mL (≈ 461 to 922 µM); MIC [15]: 62.5 µg/mL (≈ 461 µM); Effectiveness as slimicide (inhibitory concentration range) ([15]; week 2, 28° C.): 62.5 µg/mL; Effectiveness as slimicide (inhibitory concentration range) ([15]; week 3, 28° C.): 62.5 µg/mL; Effectiveness as slimicide (inhibitory concentration range) ([15]; week 4, 28° C.): 62.5 µg/mL; MIC [16, 25]: 62.5 µg/mL (≈ 461 µM); MIC [16, 26]: 62.5 to 125 µg/mL (≈ 461 to 922 µM); MIC [16, 27]: 125 to 250 µg/mL (≈ 922 to 1840 µM); MIC [16, 28]: 125 to 250 µg/mL (≈ 922 to 1840 µM)
2 | CC(=O)NC(=O)C(Cl)C(C)=O (centres unmarked) [N-Acetyl-2-Chloro-3-oxobutyramide, N-Acetyl-2-chloro-3-oxobutyramide] | 76.8 to 384 µg/mL (≈ 432 to 2160 µM) | 76.8 to 384 µg/mL (≈ 432 to 2160 µM) | 76.8 to 384 µg/mL (≈ 432 to 2160 µM) | 76.8 to 384 µg/mL (≈ 432 to 2160 µM) | 15.3 to 76.8 µg/mL (≈ 86.2 to 432 µM) | 76.8 to 384 µg/mL (≈ 432 to 2160 µM) | 76.8 to 384 µg/mL (≈ 432 to 2160 µM) | 15.3 to 76.8 µg/mL (≈ 86.2 to 432 µM) | 76.8 to 384 µg/mL (≈ 432 to 2160 µM) | 5 (63-125 mcg/gm) | 4 (125-250 mcg/gm) | 3 (250-500 mcg/gm) | 2 (500-1000 mcg/gm) | 5 (63-125 mcg/gm) | 5 (63-125 mcg/gm) | 4 (125-250 mcg/gm) | 4 (125-250 mcg/gm) | 32 to 63 µg/mL (≈ 180 to 355 µM) | 63 to 125 µg/mL (≈ 355 to 704 µM) | 125 to 500 µg/mL (≈ 704 to 2820 µM) | MIC [12, 20]: 125 to 500 µg/mL (≈ 704 to 2820 µM); MIC [13]: 62.5 to 125 µg/mL (≈ 352 to 704 µM); Effectiveness as slimicide (inhibitory concentration range) ([13]; week 2, 28° C.): 62.5 to 125 µg/mL; Effectiveness as slimicide (inhibitory concentration range) ([13]; week 3, 28° C.): 62.5 to 125 µg/mL; Effectiveness as slimicide (inhibitory concentration range) ([13]; week 4, 28° C.): 62.5 to 125 µg/mL; MIC [14, 21]: 62.5 to 125 µg/mL (≈ 352 to 704 µM); MIC [14, 22]: 125 to 250 µg/mL (≈ 704 to 1410 µM); MIC [14, 23]: 250 to 500 µg/mL (≈ 1410 to 2820 µM); MIC [14, 24]: 250 to 500 µg/mL (≈ 1410 to 2820 µM); MIC [15]: 62.5 µg/mL (≈ 352 µM); Effectiveness as slimicide (inhibitory concentration range) ([15]; week 2, 28° C.): 62.5 µg/mL; Effectiveness as slimicide (inhibitory concentration range) ([15]; week 3, 28° C.): 62.5 µg/mL; Effectiveness as slimicide (inhibitory concentration range) ([15]; week 4, 28° C.): 62.5 µg/mL; MIC [16, 25]: 62.5 µg/mL (≈ 352 µM); MIC [16, 26]: 62.5 to 125 µg/mL (≈ 352 to 704 µM); MIC [16, 27]: 62.5 to 125 µg/mL (≈ 352 to 704 µM); MIC [16, 28]: 62.5 to 125 µg/mL (≈ 352 to 704 µM)
